Measured values as given in paper PMC5707064, “Proteoglycan-targeting applied to hypoxia-activated prodrug therapy in chondrosarcoma: first proof-of-concept” (Oncotarget, 2017).

What was measured:
[1] = test system: HEMC-SS cells; experiment: Cell cycle determination and apoptosis (Annexin V) evaluation by flow cytometry; format: cell-based, human
Method: At 24 hours before treatment, 1.10^6 HEMC-SS cells were seeded in 6-well plates (Nunc) at 3 mL/well of corresponding culture media. Cells were treated with 8-QA compound at 25 μM, 50 μM, or 100 μM final concentrations for 24 hours, under either normoxic (21% O2, 5% CO2, 37°C) or hypoxic (N2, O2 < 0.3%, N2, 37°C) conditions. After incubation, the cells were harvested by trypsinization. The cell suspension containing both floating and adherent cells was centrifuged (400 g, 8 min at +4°C) in PBS. Cell cycle analyses were carried out by resuspending cells in 500 μL of ribonuclease 1 (1 mg/mL) added with 500 μL of propidium iodide (1 mg/mL) (Sigma Aldrich), and apoptotic cells were detected using the Annexin V-FITC kit (Miltenyi Biotec). The cell cycle distribution and proportion of apoptotic cells were analyzed by flow cytometrey (LSR II flow cytometer, BD Biosciences). Experiments were performed in triplicates. Data are represented as means ± SD. For cell cycle analyses, statistical significance was determined using two-way ANOVA followed by Tukey's post-hoc multiple comparison test. For Annexin V test, significance was determined using two-way ANOVA followed by Bonferroni's post-hoc multiple comparison test.

[2] = test system: human osteosarcoma Saos-2 cells; experiment: Cytotoxic activity on osteosarcoma Saos-2 cells; format: cell-based; details: hypoxic conditions, unpublished data of the authors
[3] = test system: HEMC-SS xenograft tumors; experiment: Characterization of treated tumors (histology, western blot, immunohistochemistry); format: in vivo, SCID mice; details: for γH2AX-positive cells in pimonidazole-positive hypoxic tumor areas: immunostaining on consecutive tumor sections
Method: The day after the last dose, 50% of animals of each group were euthanized by CO2 inhalation, and tumors were sampled for histology and immunohistochemistry analyses (n≥3 tumors samples per group of treatment).
Approximately 30 μg of proteins from tumors (n = 3 independent tumor samples per group of treatment) recovered one day after last dose were loaded onto 10% acrylamide gels and separated by SDS-PAGE. Proteins were then transferred to nitrocellulose membranes (Millipore) and incubated with specific primary antibodies p53S15 (Cell Signaling), p21 (Santa Cruz), p-Chk1 (S345) (Cell Signaling) or GAPDH (Santa Cruz) used as housekeeping protein. Antibody-antigen interaction was evidenced by chemiluminescence (Amersham) using HRP-conjugated secondary antibodies (Southern Biotech). Signal was detected and quantified using Image Lab software (BioRad). Data are represented as means ± SD. Statistical significance was determined using one-way ANOVA followed by Tukey's post-hoc multiple comparisons test. Results were considered significant at p < 0.05.
For tumors, the exogenous hypoxia marker pimonidazole hydrochloride (Hypoxyprobe™) was i.p.-injected at 60 mg/kg one hour before mice were euthanized. Tumors were removed, fixed in 10% neutral buffered formalin, and embedded in paraffin. For spheroid cultures, pimonidazole was added at a final concentration of 200 μM two hours before fixation and paraffin-embedding.
Five μm-thick sections were cut and adhered to poly-L-Lysine-coated glass microscope slides. After deparaffinization and rehydration, slides were stained by haematoxylin–eosin (H&E) or Alcian blue (pH 1) to visualize aggrecan or used for immunohistochemistry. After antigen retrieval, endogenous peroxidase quench and saturation, slides were incubated with the primary antibody: anti-Ki 67 (Abcam) rabbit polyclonal antibody (1/2000, 11 hours, RT), anti-pimonidazole (Hypoxyprobe™) mouse monoclonal antibody (1/100, 30 minutes, RT) or anti-phospho-histone-H2AX (Merck Millipore) mouse monoclonal antibody (1/2000, 11 hours, RT). HRP-conjugated rabbit anti-mouse IgG1 secondary antibody (Hypoxyprobe, 1/100, 30 minutes, RT) was used to detect pimonidazole adduct and a biotinylated goat anti-mouse IgG1 secondary antibody (Vector Laboratories, 1/500, 1 hour) was used to detect anti-Ki-67 and anti-phospho-histone-H2AX. Biotin was then complexed with streptavidin-coupled HRP (Vector Laboratories, 1/500, 30 minutes). HRP was detected using a DAB ultravision detection system (Thermo Scientific).

[4] = Side-effect evaluation (mouse weight, hematology, articular cartilage); format: in vivo, SCID mice; details: compared to controls; for Mouse weight loss during treatment: 6 i.v. injections at 4-day intervals
Method: To assess side effects, mouse weight was monitored and pathology analyses on healthy articular cartilage and hematological analyses were carried out at 24 hours after the last injection. Approximately 50 μL of blood, obtained by retro-orbital sampling, were analyzed on a Melet Schloesing MS9-5 Hematology Analyzer (n = 5 blood samples per group of treatment) (Diamond diagnostics).
Mouse paws (n = 5 per group of treatment) were fixed in 10% neutral buffer formalin, decalcified with 4.13% EDTA and 0.2% paraformaldehyde in PBS for 96 hours using KOS microwave tissue processor (Milestone), and embedded in paraffin. Then, 4–5-μm thick sections were stained by Toluidine Blue (pH 2.5) to visualize aggrecan or by Masson trichrome to visualize collagen. All images were captured with NanoZoomer (Hamamatsu).

[5] = tumors sampled one day after last injection

Structure (SMILES)	Cell cycle distribution in hypoxia ([1]; hypoxia (N2, O2 < 0.3%), 25, 50, 100 μM for 24 hours)	Annexin V positive cells (cell death vs control) ([1]; hypoxia, 100 μM, 24 hours)	Cell cycle distribution in normoxia ([1]; normoxia (21% O2), 25, 50, 100 μM for 24 hours)	IC50 [2]	Mitotic index in tumor tissues ([3]; H&E, tumors sampled at D41, 47.0 μmol/kg i.v. q4d x 6)	γH2AX-positive cells in pimonidazole-positive hypoxic tumor areas [3]	Phosphorylated-p53 (S15) in tumors, western blot [3, 5]	p21 in tumors, western blot [3, 5]	p-CHK1 in treated tumor samples, western blot [3, 5]	Mouse weight loss during treatment [4]	White blood cell count ([4]; 24 hours after the last dose)
Cn1c(COP(=O)(NCCC[N+](C)(C)C)N(CCCl)CCCl)cnc1[N+](=O)[O-] (stereo not drawn) [8-QA]	high accumulation of cells in S and SubG0/G1 phases	4.1 fold	increase in S-phase	132 ± 29 µM	9.7 ± 9.0 mitosis per 10 fields	strong increase of γH2AX-positive cells	significant increased of phosphorylated-p53 (S15)	induction of p21	no increase of p-CHK1	did not cause any weight loss	
CCCNP(=O)(OCc1cnc([N+](=O)[O-])n1C)N(CCCl)CCCl (stereo not drawn) [compound 8]						did not cause any γH2AX-positive cells				did not cause any weight loss	significant decrease in white blood cell count
C[N+](C)(C)CCCNP(=O)(OCc1ccccc1)N(CCCl)CCCl (stereo not drawn) [10-QA]						did not cause any γH2AX-positive cells				did not cause any weight loss	
